{"source": "paper PMC7555825", "about": "“New Insights of the Zn(II)-Induced P2 × 4R Positive Allosteric Modulation: Role of Head Receptor Domain SS2/SS3, E160 and D170” (International Journal of Molecular Sciences, 2020)", "key": {"[1]": {"target": "T1, rP2 × 2R (Rattus norvegicus, UniProt P49653)", "T1 sequence (P49653 1-472)": "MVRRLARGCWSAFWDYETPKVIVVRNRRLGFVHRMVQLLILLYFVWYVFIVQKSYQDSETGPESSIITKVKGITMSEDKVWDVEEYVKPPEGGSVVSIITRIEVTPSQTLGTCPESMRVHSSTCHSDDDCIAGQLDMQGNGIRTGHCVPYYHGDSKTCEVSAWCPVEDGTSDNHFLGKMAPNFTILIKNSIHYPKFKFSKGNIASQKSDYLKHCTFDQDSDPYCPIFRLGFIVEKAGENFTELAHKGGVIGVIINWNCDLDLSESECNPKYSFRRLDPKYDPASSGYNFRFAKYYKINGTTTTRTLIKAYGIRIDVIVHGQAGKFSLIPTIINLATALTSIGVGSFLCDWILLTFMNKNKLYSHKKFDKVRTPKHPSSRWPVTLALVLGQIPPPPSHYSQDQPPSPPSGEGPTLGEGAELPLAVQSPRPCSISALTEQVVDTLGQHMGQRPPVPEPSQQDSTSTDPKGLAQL", "experiment": "cell-based"}, "[2]": {"target": "T1, rP2 × 2R", "conditions": "NEM treatment + Zn(II) group; control before treatment (first ATP curve)"}, "[3]": {"target": "T1, rP2 × 2R", "design": "expressed in transfected cells; host or cells: Xenopus laevis oocytes (intranuclear plasmid injection); method as in PMID 10737610, PMID 10188989, PMID 10322050, PMID 8622997", "conditions": "P2 × 2R; cited from earlier work"}, "[4]": {"target": "T2, rP2 × 4R (Rattus norvegicus, UniProt P51577)", "T2 construct": "host or cells: Xenopus laevis oocytes (intranuclear plasmid injection, pcDNA3)", "T2 sequence (P51577 1-388)": "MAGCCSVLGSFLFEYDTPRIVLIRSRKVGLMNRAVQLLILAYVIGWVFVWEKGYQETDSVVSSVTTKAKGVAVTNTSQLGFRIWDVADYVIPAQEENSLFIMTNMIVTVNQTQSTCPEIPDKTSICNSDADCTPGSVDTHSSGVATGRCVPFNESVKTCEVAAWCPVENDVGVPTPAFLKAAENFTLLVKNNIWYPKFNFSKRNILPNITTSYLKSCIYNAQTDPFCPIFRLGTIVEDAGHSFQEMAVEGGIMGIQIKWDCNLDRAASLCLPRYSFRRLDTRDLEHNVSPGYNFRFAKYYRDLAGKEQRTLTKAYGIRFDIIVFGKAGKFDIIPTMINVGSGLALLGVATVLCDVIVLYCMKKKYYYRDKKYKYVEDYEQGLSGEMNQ", "experiment": "Short protocol: Zn(II) potentiation of single 10 µM ATP-evoked currents before/after thiol reagent treatment, rP2 × 4R oocytes", "assay_type": "cell-based", "conditions": "for fold increase of ATP-evoked currents by Zn(II): 10 µM ATP", "experimental": "(§1) A simpler and shorter assay to test the Zn(II) potentiation was developed to better assess the loss of Zn(II) modulation elicited by the joint co-treatment of NEM plus Zn(II). […] Ten minutes after alkylator washout, cells were treated with Zn(II) plus NEM or iodoacetamide (IA) for 5 min followed by 20 min of alkylator washout. Next, the P2 × R was tested again to examine the magnitude of the Zn(II) potentiation.\n(§2) After 10 min of washout we applied 300 µM NEM, 300 µM IA, 300 µM IAc, or 300 µM DTNB for 5 min in absence or presence of Zn(II) (10 µM for rP2 × 4R and 30 µM for rP2 × 2R).\nAfter 10 min of washout we applied 300 µM NEM + 10 µM DTT."}, "[5]": {"target": "T3, rP2 × 4R E118Q mutant (Rattus norvegicus, UniProt P51577, E118Q)", "T3 construct": "host or cells: Xenopus laevis oocytes", "T3 sequence (P51577 1-388 E118Q)": "T2 sequence (P51577 1-388) with E118Q", "experiment": "ATP concentration–response curves, voltage clamp, E118Q mutant", "assay_type": "cell-based", "conditions": "10 µM Zn(II)"}, "[6]": {"target": "T1, rP2 × 2R", "experiment": "Short protocol: Zn(II) potentiation of single 10 µM ATP-evoked currents before/after thiol reagent treatment, rP2 × 2R oocytes", "assay_type": "cell-based", "design": "expressed in transfected cells; host or cells: Xenopus laevis oocytes (intranuclear plasmid injection)", "conditions": "for times potentiation of ATP-evoked currents by Zn(II): 30 µM Zn(II)", "experimental": "as §1, §2"}}, "note": "Residue numbers refer to the chain shown, from its start."}
{"smiles": "Nc1ncnc2c1ncn2[C@@H]1O[C@H](COP(=O)(O)OP(=O)(O)OP(=O)(O)O)[C@@H](O)[C@H]1O", "note": "[ATP, adenosine triphosphate]", "values": [{"measurement": "EC50", "setting": "[1]; ATP EC50, NEM treatment + Zn(II) group, control before treatment (first ATP curve)", "value": "39.9 ± 8.3", "unit": "µM"}, {"measurement": "EC50", "setting": "[1]; ATP EC50, NEM treatment + vehicle group, control before treatment (first ATP curve)", "value": "67.7 ± 13.3", "unit": "µM"}, {"measurement": "EC50", "setting": "[1]; ATP EC50, after 300 µM NEM + 30 µM Zn(II) treatment, control = ATP curve after treatment", "value": "33 ± 7.4", "unit": "µM"}, {"measurement": "EC50", "setting": "[1]; ATP EC50, after 300 µM NEM + vehicle treatment, control = ATP curve after treatment", "value": "35 ± 9.2", "unit": "µM"}, {"measurement": "EC50", "setting": "[1]; ATP EC50, vehicle treatment, Figure 1D, without Zn(II)", "value": "56.4 ± 7.4", "unit": "µM"}, {"measurement": "Imax", "setting": "[2]", "value": "26.7 ± 3.5", "unit": "µA"}]}
{"smiles": "[Cl-].[Cl-].[Zn+2]", "note": "[Zn(II), zinc chloride (ZnCl2)]", "values": [{"measurement": "fold leftward displacement of the ATP concentration–response curve by Zn(II)", "setting": "[3]", "value": 5, "unit": "fold"}, {"measurement": "fold increase of ATP-evoked currents by Zn(II)", "setting": "[4]; 10 µM Zn(II), after 300 µM NEM plus 10 µM Zn(II) incubation", "value": "1.3 ± 0.2", "unit": "fold"}, {"measurement": "fold increase of ATP-evoked currents by Zn(II)", "setting": "[4]; 10 µM Zn(II), after 300 µM NEM treatment (no Zn(II)) and washout", "value": "1.6 ± 0.2", "unit": "fold"}, {"measurement": "fold increase of ATP-evoked currents by Zn(II)", "setting": "[4]; 10 µM Zn(II), before NEM plus Zn(II) incubation", "value": "2.4 ± 0.3", "unit": "fold"}, {"measurement": "fold increase of ATP-evoked currents by Zn(II)", "setting": "[4]; 10 µM Zn(II), before NEM treatment", "value": "1.8 ± 0.1", "unit": "fold"}, {"measurement": "fold potentiation of ATP-evoked currents by Zn(II)", "setting": "[4]; 10 µM Zn(II), before 10 µM DTT + 300 µM NEM treatment", "value": "2.0 ± 0.2", "unit": "fold"}, {"measurement": "ATP plus Zn(II) current after DTT plus NEM treatment, fold for the first ATP application", "setting": "[4]; 10 µM Zn(II), no potentiation by Zn(II) observed", "value": "2.4 ± 0.7", "unit": "fold"}, {"measurement": "fold potentiation of 10 µM ATP-evoked currents by Zn(II)", "setting": "[4]; 10 µM Zn(II), prior to any treatments", "value": "~2", "unit": "fold"}, {"measurement": "fold Zn(II)-induced potentiation of ATP-evoked currents", "setting": "[4]; after 300 µM DTNB plus 10 µM Zn(II) treatment", "value": "2.1 ± 0.4", "unit": "fold"}, {"measurement": "fold Zn(II)-induced potentiation of ATP-evoked currents", "setting": "[4]; after 300 µM IAc plus 10 µM Zn(II) treatment", "value": "2.4 ± 0.7", "unit": "fold"}, {"measurement": "reversibility of the metal effect", "setting": "[4]; after 10 min washout initial 10 µM ATP-gated current fully recovered", "value": "reversible"}, {"measurement": "fold Zn(II)-induced potentiation of ATP-evoked currents", "setting": "[4]; before DTNB plus Zn(II) treatment", "value": "1.9 ± 0.3", "unit": "fold"}, {"measurement": "fold Zn(II)-induced potentiation of ATP-evoked currents", "setting": "[4]; before IAc plus Zn(II) treatment", "value": "2.2 ± 0.2", "unit": "fold"}, {"measurement": "fold leftward shift of ATP concentration–response curve by Zn(II)", "setting": "[5]", "value": 13.6, "unit": "fold"}, {"measurement": "times potentiation of ATP-evoked currents by Zn(II)", "setting": "[6]; before IA + Zn(II) treatment, Figure 2F", "value": "8.3 ± 4.0", "unit": "times"}, {"measurement": "times potentiation of ATP-evoked currents by Zn(II)", "setting": "[6]; before NEM + Zn(II) treatment, Figure 2E", "value": "11.4 ± 2.0", "unit": "times"}, {"measurement": "Zn(II) concentration potentiating the ATP-evoked currents", "setting": "[6]; co-application with ATP, Figure S1 right", "value": "30 to 300", "unit": "µM"}]}
